pIC50: −log10 of the molar value.
Tests used:
CDK3/cyclin E2 = target: T1, CDK3/cyclin E2 (Homo sapiens, UniProt Q00526); experiment: CDK enzymatic assay; assay type: biochemical; conditions: Fig. 1A
T1 construct: purchased Reaction Biology Corp
Procedure: (§1) CDK enzymatic assays were performed by Reaction Biology Corp. (Malvern, PA), using 10 µM ATP for determining MC180295 IC50 values for each CDK family member for which assays were available. Kinase enzymatic assays were also performed by Nanosyn (Santa Clara, CA), using microfluidic technology and MC180295 IC50 curves against 10 CDKs. Selectivity against CDK9 was confirmed for the enantiomers at Reaction Biology Corp. (Malvern, PA).

CDK9/cyclin T1 = CDK9/cyclin T1 (Homo sapiens, UniProt P50750); experiment: CDK enzymatic assay; assay type: biochemical; conditions: Fig. 1A
Procedure: as §1

CDK9/cyclin K = target: T2, CDK9/cyclin K (Homo sapiens, UniProt P50750); experiment: CDK enzymatic assay; assay type: biochemical; conditions: Fig. 1A
T2 construct: purchased Reaction Biology Corp
Procedure: as §1

CDK14/cyclin Y (PFTK1) = target: T3, CDK14/cyclin Y (PFTK1) (Homo sapiens, UniProt O94921); experiment: CDK enzymatic assay; assay type: biochemical; conditions: Fig. 1A
T3 construct: purchased Reaction Biology Corp
Procedure: as §1

CDK18/cyclin Y (PCTK3) = target: T4, CDK18/cyclin Y (PCTK3) (Homo sapiens, UniProt Q07002); experiment: CDK enzymatic assay; assay type: biochemical; conditions: Fig. 1A
T4 construct: purchased Reaction Biology Corp
Procedure: as §1

CDK6-Cyclin D3 = target: T5, CDK6-Cyclin D3 (Homo sapiens, UniProt Q00534); experiment: CDK enzymatic assay; assay type: biochemical; conditions: Fig. 1A
T5 construct: purchased Nanosyn
Procedure: as §1

CDK16/cyclin Y (PCTAIRE) = target: T6, CDK16/cyclin Y (PCTAIRE) (Homo sapiens, UniProt Q00536); experiment: CDK enzymatic assay; assay type: biochemical; conditions: Fig. 1A
T6 construct: purchased Reaction Biology Corp
Procedure: as §1

CDK19/cyclin C = target: T7, CDK19/cyclin C (Homo sapiens, UniProt Q9BWU1); experiment: CDK enzymatic assay; assay type: biochemical; conditions: Fig. 1A
T7 construct: purchased Reaction Biology Corp
Procedure: as §1

CDK17/cyclin Y (PCTK2) = target: T8, CDK17/cyclin Y (PCTK2) (Homo sapiens, UniProt Q00537); experiment: CDK enzymatic assay; assay type: biochemical; conditions: Fig. 1A
T8 construct: purchased Reaction Biology Corp
Procedure: as §1

CDK8/cyclin C = target: T9, CDK8/cyclin C (Homo sapiens, UniProt P49336); experiment: CDK enzymatic assay; assay type: biochemical; conditions: Fig. 1A
T9 construct: purchased Reaction Biology Corp
Procedure: as §1

CDK9/cyclin T2 = target: T10, CDK9/cyclin T2 (Homo sapiens, UniProt P50750); experiment: CDK enzymatic assay; assay type: biochemical; conditions: Fig. 1A
T10 construct: purchased Reaction Biology Corp
Procedure: as §1

HT29 cells = experiment: HT29 colon cancer xenograft in NSG mice; assay type: in vivo; conditions: HT29 s.c. in NSG mice, 20 mg/kg i.p. q.o.d.
Procedure: Fig. 3 Antitumor, survival, and metabolic effects of MC180295 and its enantiomers, MC180379 and MC180380. A Antitumor effects of MC180295, MC180379, and MC180380. NSG mice were inoculated (s.c.) with 2 × 10^6 SW48 cells. Eleven days later, when tumors were palpable, 20 mg/kg MC180295, MC180379, MC180380, or vehicle were administered (i.p.) every other day (q.o.d.). Tumor sizes were measured using a caliper. […] C Antitumor effects of MC180379 and MC180380. NSG mice were inoculated (s.c.) with 1 × 10^6 HT29 cells. Twelve days later, when tumors were palpable, 20 mg/kg MC180379, MC180380, or vehicle were administered (i.p.) q.o.d. Tumor sizes were measured using a caliper. D HT29-xenografted mouse survival following (i.p.) q.o.d. dosing with 20 mg/kg MC180379 or MC180380. E NSG mice were inoculated (i.p.) with 5 × 10^5 MV4-11-luc cells. Four days later, when substantial tumor burden was evident by bioluminescence imaging, MC180379, MC180380, or vehicle were administered (i.p.) q.o.d at 20 mg/kg. Luciferase expression was quantified and calculated. F Mouse survival in days. […] G In vitro liver microsome stability and rat hepatocyte/Sprague–Dawley stability assay comparing MC180379 to MC180380. The dog breed was beagle and the mouse microsome strain was CD-1. […] Significances were calculated using log-rank (Mantel-Cox) or Student’s t tests. […]

T3 sequence (O94921 whole entry): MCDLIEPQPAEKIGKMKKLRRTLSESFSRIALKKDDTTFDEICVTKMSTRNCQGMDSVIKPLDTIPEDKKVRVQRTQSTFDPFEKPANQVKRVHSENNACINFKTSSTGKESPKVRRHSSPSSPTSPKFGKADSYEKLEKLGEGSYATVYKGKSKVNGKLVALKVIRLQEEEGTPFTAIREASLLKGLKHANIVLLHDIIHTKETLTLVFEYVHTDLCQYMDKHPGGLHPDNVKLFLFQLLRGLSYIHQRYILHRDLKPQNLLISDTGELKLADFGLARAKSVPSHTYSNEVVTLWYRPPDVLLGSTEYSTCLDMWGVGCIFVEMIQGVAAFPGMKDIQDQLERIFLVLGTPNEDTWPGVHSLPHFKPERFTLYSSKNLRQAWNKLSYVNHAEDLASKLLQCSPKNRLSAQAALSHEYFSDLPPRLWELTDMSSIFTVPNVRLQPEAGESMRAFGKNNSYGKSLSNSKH
T3 sequence (Q8ND76 whole entry partner): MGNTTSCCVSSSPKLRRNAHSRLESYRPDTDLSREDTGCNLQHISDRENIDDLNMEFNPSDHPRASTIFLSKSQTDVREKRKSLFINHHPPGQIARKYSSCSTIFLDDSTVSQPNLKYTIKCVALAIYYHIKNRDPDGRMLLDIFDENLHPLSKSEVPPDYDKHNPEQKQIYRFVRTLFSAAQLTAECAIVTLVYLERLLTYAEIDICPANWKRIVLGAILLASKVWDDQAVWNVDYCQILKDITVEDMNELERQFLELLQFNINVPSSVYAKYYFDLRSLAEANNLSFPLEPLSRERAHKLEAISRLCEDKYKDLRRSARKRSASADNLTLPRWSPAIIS
T4 sequence (Q07002 whole entry): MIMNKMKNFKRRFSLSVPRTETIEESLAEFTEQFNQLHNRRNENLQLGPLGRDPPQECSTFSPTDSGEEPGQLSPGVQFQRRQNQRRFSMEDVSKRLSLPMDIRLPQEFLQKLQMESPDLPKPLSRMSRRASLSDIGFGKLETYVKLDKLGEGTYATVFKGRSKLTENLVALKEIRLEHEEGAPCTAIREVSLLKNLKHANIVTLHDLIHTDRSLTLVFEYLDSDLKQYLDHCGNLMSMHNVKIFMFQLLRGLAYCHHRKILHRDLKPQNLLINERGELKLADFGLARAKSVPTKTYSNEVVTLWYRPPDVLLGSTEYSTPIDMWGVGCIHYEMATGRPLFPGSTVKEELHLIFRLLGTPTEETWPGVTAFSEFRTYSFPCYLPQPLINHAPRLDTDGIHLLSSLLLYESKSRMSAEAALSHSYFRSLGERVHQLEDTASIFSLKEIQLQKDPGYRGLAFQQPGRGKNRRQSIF
T4 sequence (Q8ND76 whole entry partner): as the sequence (Q8ND76 whole entry partner) above
T8 sequence (Q00537 whole entry): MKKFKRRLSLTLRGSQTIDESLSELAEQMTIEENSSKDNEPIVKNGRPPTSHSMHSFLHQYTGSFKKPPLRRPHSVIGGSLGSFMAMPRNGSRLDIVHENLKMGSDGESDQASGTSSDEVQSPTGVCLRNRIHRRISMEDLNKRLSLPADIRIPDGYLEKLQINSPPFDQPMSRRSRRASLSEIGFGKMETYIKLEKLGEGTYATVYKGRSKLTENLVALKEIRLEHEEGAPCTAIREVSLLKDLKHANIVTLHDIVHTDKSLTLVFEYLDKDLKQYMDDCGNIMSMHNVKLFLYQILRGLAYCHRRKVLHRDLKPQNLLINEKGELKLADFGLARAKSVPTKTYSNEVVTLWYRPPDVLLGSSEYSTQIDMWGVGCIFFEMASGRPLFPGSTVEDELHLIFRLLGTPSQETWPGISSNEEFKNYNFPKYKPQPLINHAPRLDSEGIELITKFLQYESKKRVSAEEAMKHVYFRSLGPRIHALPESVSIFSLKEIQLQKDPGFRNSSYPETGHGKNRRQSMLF
T8 sequence (Q8ND76 whole entry partner): as the sequence (Q8ND76 whole entry partner) above
T1 sequence (Q00526 whole entry): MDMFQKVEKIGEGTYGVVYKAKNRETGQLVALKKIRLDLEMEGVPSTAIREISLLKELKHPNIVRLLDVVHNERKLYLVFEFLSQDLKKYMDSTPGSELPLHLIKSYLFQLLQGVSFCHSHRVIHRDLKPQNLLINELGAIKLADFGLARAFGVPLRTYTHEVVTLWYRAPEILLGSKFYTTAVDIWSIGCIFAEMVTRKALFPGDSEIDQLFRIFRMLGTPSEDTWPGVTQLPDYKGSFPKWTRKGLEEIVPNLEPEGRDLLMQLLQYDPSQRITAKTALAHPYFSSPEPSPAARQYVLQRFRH
T1 sequence (O96020 whole entry partner): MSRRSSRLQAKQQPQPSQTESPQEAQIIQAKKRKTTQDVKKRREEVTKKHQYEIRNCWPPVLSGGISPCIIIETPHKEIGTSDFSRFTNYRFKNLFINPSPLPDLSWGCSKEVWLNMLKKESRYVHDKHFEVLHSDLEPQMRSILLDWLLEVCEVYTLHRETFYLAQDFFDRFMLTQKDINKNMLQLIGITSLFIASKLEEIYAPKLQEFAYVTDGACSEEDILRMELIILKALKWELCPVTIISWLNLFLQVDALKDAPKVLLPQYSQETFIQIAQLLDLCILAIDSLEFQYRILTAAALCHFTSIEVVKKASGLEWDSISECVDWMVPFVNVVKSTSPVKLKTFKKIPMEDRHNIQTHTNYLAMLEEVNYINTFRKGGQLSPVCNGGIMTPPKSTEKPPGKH
T5 sequence (Q00534 whole entry): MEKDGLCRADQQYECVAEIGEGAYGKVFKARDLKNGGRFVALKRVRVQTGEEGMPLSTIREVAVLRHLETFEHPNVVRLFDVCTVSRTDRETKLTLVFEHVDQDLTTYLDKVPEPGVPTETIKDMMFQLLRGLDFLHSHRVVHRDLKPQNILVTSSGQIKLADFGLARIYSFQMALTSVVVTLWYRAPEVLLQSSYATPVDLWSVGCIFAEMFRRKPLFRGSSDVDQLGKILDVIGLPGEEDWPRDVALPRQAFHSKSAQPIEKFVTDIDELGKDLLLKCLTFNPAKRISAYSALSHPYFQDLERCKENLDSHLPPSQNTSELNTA
T5 sequence (P30281 whole entry partner): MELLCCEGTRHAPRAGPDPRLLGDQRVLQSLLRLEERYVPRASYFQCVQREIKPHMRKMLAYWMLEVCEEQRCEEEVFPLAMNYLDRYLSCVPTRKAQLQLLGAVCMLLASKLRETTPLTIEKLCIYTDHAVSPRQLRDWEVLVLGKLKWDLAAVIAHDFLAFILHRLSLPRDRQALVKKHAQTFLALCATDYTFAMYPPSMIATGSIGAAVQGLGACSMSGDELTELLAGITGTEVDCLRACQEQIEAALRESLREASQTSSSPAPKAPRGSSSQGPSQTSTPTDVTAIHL
T9 sequence (P49336 whole entry): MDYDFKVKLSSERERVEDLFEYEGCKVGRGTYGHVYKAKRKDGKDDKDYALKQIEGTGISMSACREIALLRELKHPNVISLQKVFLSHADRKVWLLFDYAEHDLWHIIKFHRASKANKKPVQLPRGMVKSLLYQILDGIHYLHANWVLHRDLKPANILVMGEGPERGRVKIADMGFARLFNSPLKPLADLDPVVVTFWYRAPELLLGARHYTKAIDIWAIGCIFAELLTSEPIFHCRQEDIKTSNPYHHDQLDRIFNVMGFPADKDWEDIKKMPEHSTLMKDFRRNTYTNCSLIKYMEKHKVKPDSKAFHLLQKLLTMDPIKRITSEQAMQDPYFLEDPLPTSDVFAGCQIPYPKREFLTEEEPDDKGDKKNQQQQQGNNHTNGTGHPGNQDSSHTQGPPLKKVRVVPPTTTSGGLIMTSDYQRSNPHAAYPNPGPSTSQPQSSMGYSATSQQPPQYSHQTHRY
T9 sequence (P24863 whole entry partner): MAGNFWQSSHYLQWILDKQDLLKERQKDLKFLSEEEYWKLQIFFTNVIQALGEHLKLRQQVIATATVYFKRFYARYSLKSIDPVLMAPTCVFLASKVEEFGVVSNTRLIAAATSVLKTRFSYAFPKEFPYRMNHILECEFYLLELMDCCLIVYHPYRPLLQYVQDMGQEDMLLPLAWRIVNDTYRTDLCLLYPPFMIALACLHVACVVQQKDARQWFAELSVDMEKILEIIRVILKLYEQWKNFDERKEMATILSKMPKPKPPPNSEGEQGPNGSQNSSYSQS
T6 sequence (Q00536 whole entry): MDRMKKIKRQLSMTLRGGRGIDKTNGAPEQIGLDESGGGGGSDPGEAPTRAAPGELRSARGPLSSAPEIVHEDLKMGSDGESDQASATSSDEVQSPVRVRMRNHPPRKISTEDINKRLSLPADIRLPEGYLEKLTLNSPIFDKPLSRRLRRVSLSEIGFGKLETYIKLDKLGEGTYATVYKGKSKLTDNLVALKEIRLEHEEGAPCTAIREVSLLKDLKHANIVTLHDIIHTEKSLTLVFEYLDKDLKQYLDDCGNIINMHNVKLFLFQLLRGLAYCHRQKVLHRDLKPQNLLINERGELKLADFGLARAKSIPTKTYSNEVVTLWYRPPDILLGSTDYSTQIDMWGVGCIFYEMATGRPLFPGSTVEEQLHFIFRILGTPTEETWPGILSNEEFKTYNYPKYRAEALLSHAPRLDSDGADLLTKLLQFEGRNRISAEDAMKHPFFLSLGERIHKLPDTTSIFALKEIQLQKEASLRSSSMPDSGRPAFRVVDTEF
T6 sequence (Q8ND76 whole entry partner): as the sequence (Q8ND76 whole entry partner) above

| SMILES | pIC50 (CDK3/cyclin E2) | pIC50 (CDK9/cyclin T1) | pIC50 (CDK9/cyclin K) | pIC50 (CDK14/cyclin Y (PFTK1)) | pIC50 (CDK18/cyclin Y (PCTK3)) | pIC50 (CDK6-Cyclin D3) | pIC50 (CDK16/cyclin Y (PCTAIRE)) | pIC50 (CDK19/cyclin C) | pIC50 (CDK17/cyclin Y (PCTK2)) | pIC50 (CDK8/cyclin C) | pIC50 (CDK9/cyclin T2) | survival (HT29 cells) |
| --- | --- | --- | --- | --- | --- | --- | --- | --- | --- | --- | --- | --- |
| Nc1nc(N[C@H]2C[C@@H]3CC[C@H]2C3)sc1C(=O)c1ccccc1[N+](=O)[O-] (relative stereo) [MC180295] | 6.40 | 7.92 | 7.31 | 6.28 | 5.97 | 6.15 | 5.93 | 6.09 | 6.36 | 6.30 | 8.52 |  |
| Nc1nc(N[C@H]2C[C@@H]3CC[C@H]2C3)sc1C(=O)c1ccccc1[N+](=O)[O-] [MC180380] |  |  |  |  |  |  |  |  |  |  |  | extending survival longer than MC180379 |

— paper PMC10765884, “MC180295 is a highly potent and selective CDK9 inhibitor with preclinical in vitro and in vivo efficacy in cancer” (Clinical Epigenetics, 2024)
